“And” between values parts separate entries of the source, which are not always exact repeats. Equal entries are not always repeated.
Key:
[1] = target: T1, hGALK1 (Homo sapiens, UniProt P51570, E253A/K252A); assay: Kinase-Glo luminescent hGALK1 activity assay; format: biochemical; design: Vmaxapp, substrate galactose, with ligand (+) / Kmapp, substrate galactose, with ligand (+): unit not given here; settings: for mode of inhibition with respect to galactose: 0–250 μM galactose, best-fit model in GraphPad Prism; for Kmapp, substrate galactose, with ligand (+) / Vmaxapp, substrate galactose, with ligand (+): 35 µM ATP, maximum tested concentration: 1 mM T1, 15 mM fragment 3, 2 mM 11–13; for inhibition at 2000 µM: 2 mM compound
T1 construct: A hGALK1 construct, encoding full-length protein harboring the surface entropy[41] mutations K252A:E253A; His6 (N); made in house; host or cells: E. coli BL21(DE3)
Procedure: hGALK1 activity in vitro was determined using the Kinase-Glo luminescent kinase assay (Promega), according to the manufacturer’s protocol. […] Following a 1-h RT incubation, 10 μL of Kinase-Glo Plus detection reagent was added (final assay volume: 20 μL/well), and after a further 20 minutes RT incubation, luminescence was detected using a Pherastar FSX plate reader (BMG Labtech) containing a luminescence optics module. […] All reactions were performed in technical triplicates for two different preparations of hGALK1.
Data were plotted using GraphPad Prism software; curve fitting was performed with a nonlinear least-squares regression fit to the mixed, competitive, noncompetitive, and uncompetitive inhibition models from the GraphPad Prism enzyme kinetics–inhibition equations and the best fit selected by comparison of Akaike’s Information Criterion (AICc) probability scores and extra sum-of-squares F test P values calculated by the software.

[2] = target: T2, hGALK2 (Homo sapiens, UniProt Q01415); assay: Kinase-Glo hGALK2 activity assay; format: biochemical; settings: 1 mM compound
T2 construct: Constructs encoding full-length hGALK2 (Met1-Ala458) and hMVK (Met1-Leu396); His6-Strep-Strep tag followed by TEV protease cleavage site (N); made in house; host or cells: E. coli BL21(DE3)
T2 sequence (Q01415 1-458): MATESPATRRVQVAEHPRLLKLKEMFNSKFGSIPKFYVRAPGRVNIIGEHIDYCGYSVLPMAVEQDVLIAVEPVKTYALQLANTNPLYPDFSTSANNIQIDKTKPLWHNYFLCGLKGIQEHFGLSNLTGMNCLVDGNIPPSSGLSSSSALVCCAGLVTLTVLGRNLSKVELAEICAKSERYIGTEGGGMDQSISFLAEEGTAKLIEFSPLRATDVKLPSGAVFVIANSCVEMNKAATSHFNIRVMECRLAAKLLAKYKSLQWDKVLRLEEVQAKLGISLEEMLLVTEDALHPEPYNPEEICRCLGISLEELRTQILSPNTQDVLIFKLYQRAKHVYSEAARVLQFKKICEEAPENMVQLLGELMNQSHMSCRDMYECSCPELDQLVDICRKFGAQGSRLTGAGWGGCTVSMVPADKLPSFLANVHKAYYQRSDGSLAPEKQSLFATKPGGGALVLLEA
Procedure: (§1) hGALK1 activity in vitro was determined using the Kinase-Glo luminescent kinase assay (Promega), according to the manufacturer’s protocol. […] Similarly, hGALK2 activity and inhibition was measured with reactions containing 50 nM hGALK2, 100 μM N-acetylgalactosamine, and 35 μM ATP in the above-described buffer and hMVK activity and inhibition was measured with reactions containing 250 nM hMVK, 100 μM mevalonate, and 35 μM ATP in the above-described buffer. Following a 1-h RT incubation, 10 μL of Kinase-Glo Plus detection reagent was added (final assay volume: 20 μL/well), and after a further 20 minutes RT incubation, luminescence was detected using a Pherastar FSX plate reader (BMG Labtech) containing a luminescence optics module. To determine the inhibition mode with respect to galactose, 10 nM hGALK1 and 35 μM ATP in an assay buffer was added to an array of six fragment (0–15 mM) or 12 compound (0–2 mM) concentrations against six galactose concentrations (0–250 μM), with a final reaction volume of 10 μL/well dispensed into 384-well assay plates (Greiner), and measured as described above. All reactions were performed in technical triplicates for two different preparations of hGALK1. Reaction rate, defined as total ATP consumed over the 1-h hGALK1 reaction, was determined using the following equation, where Lumreaction = mean value of measured luminescence of each reaction and Lum35 = measured luminescence with no galactose (i.e., luminescence of 35 μM ATP): [drawing 1]

[3] = target: T1, hGALK1; assay: Surface plasmon resonance (SPR) binding assay; settings: hGALK1 immobilized on CM5 chip, analyte 0.195–200 μM, n = 1
Procedure: Purified hGALK1 (30 μg/mL), diluted in acetate buffer at pH 5, was attached via covalent coupling to a density of 13000 RU on a CM5 chip. The assay buffer was 50 mM sodium phosphate, pH 7.5, 200 mM NaCl, 0.5 mM TCEP, 5% DMSO, and 0.05% TWEEN20. A serial dilution (11 concentrations) was prepared in the above buffer for each analyte (3, 11–13) by 1:1 dilution from 200 μM to 0.195 μM, and the subsequent solutions were passed over the chip at a flow rate of 30 μL/min. Data are from an n = 1 experiment.

[4] = target: T1, hGALK1; assay: Amplex Red fluorescence-based hGALK1 activity assay (coupled with galactose oxidase); format: biochemical; design: Vmaxapp, substrate ATP, with ligand (+) / Kmapp, substrate ATP, with ligand (+): unit not given here; settings: for mode of inhibition with respect to ATP: 0–250 μM ATP, best-fit model in GraphPad Prism; for Kmapp, substrate ATP, with ligand (+) / Vmaxapp, substrate ATP, with ligand (+): 50 µM galactose, maximum tested concentration: 1 mM T1, 15 mM fragment 3, 2 mM 11–13; for inhibition at 2000 µM: 2 mM compound
Source text: Consequently, to confirm the mode of inhibition of the spiro-benzoxazole inhibitors with respect to ATP, we adopted the Amplex Red fluorescence-based assay[33],[34] by coupling the hGALK1 reaction with D. dendroides galactose oxidase (GAO; EC 1.1.3.9) to measure the level of galactose remaining after being depleted as a substrate for hGALK1. In this method, hydrogen peroxide generated by the oxidation of galactose by GAO is used by horseradish peroxidase to convert the nonfluorescent substrate Amplex Red into its highly fluorescent product resorufin; therefore, the resultant fluorescent signal is inversely proportional to hGALK1 enzyme activity. We optimized several parameters of this assay to allow measurement of hGALK1 activity for the first time (Figure S3; Supplementary Results).
The Amplex Red assay reagent contained horseradish peroxidase (EC 1.11.1.7, 0.2 U/mL), its substrate Amplex Red (10-acetyl-3,7-dihydroxyphenoxazine, 100 μM), and galactose oxidase (EC 1.1.3.9, 4 U/mL). The assay buffer used was the same as in the Kinase-Glo assay. […] Amplex Red reagent was added at a 1:1 volume to the hGALK1 reaction after 1-h incubation at RT. Fluorescence emission was measured at 585 nm, with excitation at 570 nm, after a further incubation period of 40 minutes, using a Pherastar FSX plate reader with a FI 540 590 optics module. Reactions were performed in technical triplicates for two biological replicates, and data were plotted and fitted as described for the Kinase-Glo assay except that the reaction rate, defined as total galactose consumed over the 1-h hGALK1 reaction, was determined using the following equation, where Fluorreaction = mean value of measured fluorescence of each reaction and Fluor50 = measured fluorescence with no galactose (i.e., fluorescence of 50 μM galactose): [drawing 2]

[5] = target: T3, hMVK (Homo sapiens, UniProt Q03426); assay: Kinase-Glo hMVK activity assay; format: biochemical; settings: 1 mM compound
T3 construct: Constructs encoding full-length hGALK2 (Met1-Ala458) and hMVK (Met1-Leu396); His6-Strep-Strep tag followed by TEV protease cleavage site (N); made in house; host or cells: E. coli BL21(DE3)
Procedure: as §1

[6] = calculated cumulatively over N1 and N2
[7] = concentration achieving 50% inhibition, IC50 not determinable, lower potency

T1 sequence (P51570 whole entry K252A/E253A, the tested form may be a part): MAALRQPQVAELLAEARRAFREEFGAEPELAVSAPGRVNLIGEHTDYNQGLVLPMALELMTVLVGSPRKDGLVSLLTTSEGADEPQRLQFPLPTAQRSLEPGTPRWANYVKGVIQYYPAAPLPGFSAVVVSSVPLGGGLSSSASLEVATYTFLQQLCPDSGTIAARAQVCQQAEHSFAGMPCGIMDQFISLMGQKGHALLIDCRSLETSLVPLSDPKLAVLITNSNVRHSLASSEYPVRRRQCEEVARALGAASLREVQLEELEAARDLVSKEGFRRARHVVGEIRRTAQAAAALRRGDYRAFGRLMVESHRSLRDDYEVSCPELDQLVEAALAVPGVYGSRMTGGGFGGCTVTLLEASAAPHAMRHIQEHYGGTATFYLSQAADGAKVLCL
T3 sequence (Q03426 whole entry): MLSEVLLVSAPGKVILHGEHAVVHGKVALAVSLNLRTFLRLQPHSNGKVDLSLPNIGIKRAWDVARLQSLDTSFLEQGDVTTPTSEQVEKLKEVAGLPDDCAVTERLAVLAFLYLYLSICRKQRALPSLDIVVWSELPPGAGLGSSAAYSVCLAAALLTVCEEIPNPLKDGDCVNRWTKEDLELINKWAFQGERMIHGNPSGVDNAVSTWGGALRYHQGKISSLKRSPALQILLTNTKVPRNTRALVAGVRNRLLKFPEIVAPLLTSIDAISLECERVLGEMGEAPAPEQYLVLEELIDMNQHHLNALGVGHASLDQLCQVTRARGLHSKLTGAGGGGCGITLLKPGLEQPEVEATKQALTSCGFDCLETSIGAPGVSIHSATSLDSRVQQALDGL

| Compound | change in hGALK1 activity, strictly standardized mean difference (SSMD) ([1]; 5 mM fragment) | inhibition at 1000 µM [2] | Kd [3] | mode of inhibition with respect to ATP ([4]; 50 μM galactose) | Kmapp, substrate ATP, with ligand (+) [4] | Vmaxapp, substrate ATP, with ligand (+) [4] | inhibition at 2000 µM [4] | inhibition at 1000 µM [5] | mode of inhibition with respect to galactose ([1]; 35 μM ATP) | Kmapp, substrate galactose, with ligand (+) [1] | Vmaxapp, substrate galactose, with ligand (+) [1] | inhibition at 2000 µM [1] | other results |
| --- | --- | --- | --- | --- | --- | --- | --- | --- | --- | --- | --- | --- | --- |
| CCOC(=O)C1CCN(c2cnccn2)CC1 [fragment 1] | < 0.5 | – | – | – | – | – | – | – | – | – | – | – | – |
| COc1ccc(Cl)cc1C(=O)NCC(C)C [fragment 10] | 0.80 | – | – | – | – | – | – | – | – | – | – | – | – |
| Cc1ccc(C)c(OC(=O)c2ccncc2)c1 [fragment 7] | < 0.5 | – | – | – | – | – | – | – | – | – | – | – | – |
| O=C(Cc1ccc(Cl)cc1)Nc1ncccn1 [fragment 3] | 2.79 | – | – | – | 32.1 ± 8.4 | 4.2 ± 0.3 | – | – | mixed | 184.2 ± 2.1 | 5.1 ± 0.4 | – | decrease in Vmaxapp, ATP titration ([4]; fragment 0–15 mM, 50 μM galactose): 4 fold; reduction of hGALK1 activity ([1]; 5 mM fragment, single-point): 24 ± 1.6%; decrease in Vmaxapp, galactose titration ([1]; fragment 0–15 mM, 35 μM ATP): 5 fold; increase in Kmapp, galactose titration ([1]; fragment 0–15 mM, 35 μM ATP): 6 fold |

The next lines start with results.

| change in hGALK1 activity, strictly standardized mean difference (SSMD) ([1]; 5 mM fragment) | inhibition at 1000 µM [2] | Kd [3] | mode of inhibition with respect to ATP ([4]; 50 μM galactose) | Kmapp, substrate ATP, with ligand (+) [4] | Vmaxapp, substrate ATP, with ligand (+) [4] | inhibition at 2000 µM [4] | inhibition at 1000 µM [5] | mode of inhibition with respect to galactose ([1]; 35 μM ATP) | Kmapp, substrate galactose, with ligand (+) [1] | Vmaxapp, substrate galactose, with ligand (+) [1] | inhibition at 2000 µM [1] | Compound | other results |
| --- | --- | --- | --- | --- | --- | --- | --- | --- | --- | --- | --- | --- | --- |
| – | < 10% | ~100 µM and 89 µM | noncompetitive | 36.5 ± 5.8 | 11.1 ± 0.9 | > 50% | < 10% | noncompetitive | 36.5 ± 2.1 | 3.7 ± 0.4 | > 50% | O=C(CNc1cnc2cc(Cl)c(Cl)cc2n1)NC1CC1 [compound 11] | IC50 ([4]; biological replicate N1, read-out: Amplex Red N1 IC50): 31 µM; IC50 ([4]; biological replicate N2, read-out: Amplex Red N2 IC50): 65 µM; Amplex Red LLEAT [4, 6]: 0.22 kcal/mol; IC50 ([1]; biological replicate N1, read-out: Kinase-Glo N1 IC50): 209 µM; IC50 ([1]; biological replicate N2, read-out: Kinase-Glo N2 IC50): 116 µM; Kinase-Glo LLEAT [1, 6]: 0.19 kcal/mol; LLEAT (Astex ligand lipophilicity efficiency score), range ([1]; range over Kinase-Glo and Amplex Red assays): 0.19 to 0.22 kcal/mol; IC50 ([1]; range over Kinase-Glo and Amplex Red assays, two biological replicates, read-out: IC50 values, range): 31 to 209 µM |
| – | < 10% | ~200 µM and ~203 µM | noncompetitive | 46.5 ± 4.5 | 14.7 ± 3.0 | > 50% | < 10% | mixed | 143.6 ± 7.6 | 4.4 ± 0.4 | > 50% | COc1ccc(Cl)cc1C(=O)NC1CCN(c2ncccn2)CC1 [compound 13] | IC50 [4, 7]: ~1000 µM; IC50 [1, 7]: ~1000 µM |

From article PMC8056384 (ACS Chemical Biology, 2021)
